Test results taken from US20140309192A1, “MODULATORS OF THE G PROTEIN-COUPLED MAS RECEPTOR AND THE TREATMENT OF DISORDERS RELATED THERETO” (ARENA PHARMACEUTICALS, INC., priority 2011, published 2014).
Entries after “also recorded” stand apart in the source; their conditions may differ.

Experiments:
[1] = tested on: isolated perfused mouse hearts; test: Ex vivo coronary flow, Langendorff perfused isolated mouse hearts; conditions: 1 μM
Protocol: (§1) Coronary flow was measured in male Mas^−/− and Mas^+/+ mice, and in male Sprague-Dawley rats using Langendorff perfused isolated hearts. Freshly isolated hearts were placed on a Langendorff apparatus (Harvard Apparatus) and perfused at a constant pressure of 80 mmHg with a modified Krebs-Henseleit buffer solution (Sigma K3753) and aerated with 95% oxygen and 5% carbon dioxide, pH 7.35-7.4. The temperature was maintained at 37° C. by surrounding the heart with a water-heated glassware chamber. Coronary flow was measured using a flow measurement system (Harvard Apparatus) which included the transit time flow meter and a flow probe built into an adaptor block located at the perfusate inflow port. Data were recorded continuously using an ISOHEART data acquisition system (Harvard Apparatus). After a 20-min equilibration period, Mas compounds were added to the perfusion buffer reservoir at the desired concentration (agonist AR234960 at 1 μM, or inverse agonist AR244555 at 5 μM) and coronary flow was recorded for 10 min

[2] = tested on: isolated perfused rat hearts; test: Ex vivo coronary flow, Langendorff perfused isolated rat hearts; conditions: AR234960 1 μM
Protocol: as §1
To determine the role of the Mas-Gq-PLC pathway in regulating coronary flow, the Mas inverse agonist AR244555 (5 μM) or the PLC inhibitor U-73122 (0.5 μM) was added to the perfusion buffer for 10 min and then the agonist AR234960 (1 μM) was added to the perfusion buffer. Coronary flow was recorded for another 10 min Changes in coronary flow induced by AR234960 were calculated as percentage of the coronary flow at 10 min following AR234960 treatment, relative to the coronary flow measured immediately prior to addition of AR234960. This protocol allowed for measurement of agonist mediated vasoconstrictor activity, and accounted for changes in baseline coronary flow due to inverse agonist treatment alone.
To determine whether Mas agonist-induced changes in coronary flow were endothelium-dependent, the responses in Langendorff perfused hearts were measured after chemical removal of endothelium with sodium deoxycholate. After a 20-min equilibration period, sodium deoxycholate was added to the perfusion buffer at 0.2 mg/mL for 3 min and then washed out for 10 min Mas compounds were added and coronary flow was recorded for 10 min Adenosine (1 μM), a coronary vasodilator that targets the endothelium, was used as a control to verify effective removal of endothelium.

Male Sprague-Dawley rats [3] = test: Left kidney artery ischemia reperfusion injury model; assay type: in vivo, rat
Protocol: Rats were anesthetized with pentobarbital (70 mg/kg). Normal body temperature was maintained by placing the animals on heating pads until recovery from anesthesia. Following a midline abdominal incision, the left renal pedicle was localized and the renal artery and vein were dissected. An atraumatic microvascular clamp was placed, and the left renal artery was occluded for 45 minutes. After inspection for signs of ischemia, the wound was covered with PBS soaked cotton. After release of the clamp, restoration of blood-flow was inspected visually and the wound was closed with surgical staples and the animal was allowed to recover. 24 hours following the end of ischemia blood was collected and markers of kidney function, creatinine and blood urea nitrogen (BUN) were measured.
15 minutes prior to renal artery occlusion either vehicle (20% hydroxypropyl-β-cyclodextrin) or a loading dose of 6.26 mg/kg Mas inverse agonist (Compound 170) was administered i.v. followed by a i.v. maintenance dose of 1.64 mg/kg/hr lasting for 2 hours following removal of the renal artery clamp. A renoprotective positive control peptide, Atrial natriuretic peptide (ANP, 0.2 μg/kg/min), was administered by continuous i.v. infusion starting 15 minutes prior to renal artery occlusion and lasting for 2 hours following removal of the renal artery clamp, see FIG. 43 for protocol.

Male Sprague-Dawley rats [4] = test: Myocardial ischemia/reperfusion injury in rats, infarct size (Example 4); assay type: in vivo, rat
Protocol: Adult rats were anesthetized with sodium pentobarbital (50 mg/kg i.p.) and placed in the supine position on a surgery frame with a heating pad (37° C.) beneath. Rats were tracheostomized and ventilated with a SAR-830 small-animal ventilator (Model 683, Harvard Apparatus) to provide room air at a tidal volume of 2.5 mL/stroke and at a rate of 70 stroke/min. Polyethylene catheters were placed in the right internal carotid artery and the external jugular vein for measurement of mean arterial blood pressure and infusion of drug or vehicle, respectively.
Myocardial I/R injury was produced as follows. A left thoracotomy was performed approximately 20 mm from the sternum to expose the heart at the fifth intercostal space. […]
Animals were randomly divided into the following 4 groups: (1-3) low, medium, and high doses of Compound 170 administered by continuous i.v. infusion starting 30 min before coronary artery ligation (n=6 per dose), and (4) 20% HPBCD (vehicle, hydroxypropyl-β-cyclodextrin) administered by continuous i.v. infusion beginning 30 min before coronary artery ligation (n=6). […] Mean arterial blood pressure was measured after stabilization and just prior to drug infusion (baseline) and again following 25 min of drug or vehicle infusion, before coronary artery ligation. […]

[5] = 6.26 mg/kg loading + 1.64 mg/kg/hr i.v., 45 minutes occlusion, blood 24 hours after ischemia

`COc1cc([N+](=O)[O-])ccc1S(=O)(=O)N1CC(CN2CCN(c3ccccn3)CC2)C(c2cccc(F)c2)C1` (stereo not shown) [AR234960] was tested, and the “coronary flow, Mas knockout (Mas−/−) mouse hearts” value [1] was “absent”, the “coronary flow, Mas+/+ mouse hearts” value [1] was 64 % of baseline and the “coronary flow, wild type (Mas+/+) mouse hearts” value [1] was “decreased coronary flow significantly”. For the same molecule, the “coronary flow in isolated perfused rat hearts” value ([2]; AR244555 5 μM, 10 min) was “decrease in coronary flow; also recorded: significantly decreased” and the “compound-mediated change in coronary flow in endothelium denuded hearts” value ([2]; after sodium deoxycholate, adenosine 1 μM) was “preserved”.

In the case of `NC(=O)[C@H](CO)NCc1ccc(C(=O)Nc2ccc(Cl)cc2N2CCN(CCC(F)(F)F)CC2)c(F)c1F` [Compound 170, (S)-4-((1-Amino-3-hydroxy-1-oxopropan-2-ylamino)methyl)-N-(4-chloro-2-(4-(3,3,3-trifluoropropyl)piperazin-1-yl)phenyl)-2,3-difluorobenzamide], the “kidney function as measured by blood creatinine” value (Male Sprague-Dawley rats [3]; [5]) is reported as “improves kidney function”, the “kidney function as measured by blood urea nitrogen (BUN)” value (Male Sprague-Dawley rats [3]; [5]) is reported as “improves kidney function” and the “degree of renal protection” value (Male Sprague-Dawley rats [3]; compared with ANP 0.2 μg/kg/min) is reported as “at the same activity compared to ANP”. For the same molecule, the “reduction of myocardial infarction size” value (Male Sprague-Dawley rats [4]; FIG. 5, rats subjected to coronary artery ligation and reperfusion) was “dose dependent effect” and the “myocardial infarct size after reperfusion compared to vehicle treatment” value (Male Sprague-Dawley rats [4]; medium (1.878 mg/kg loading + 0.492 mg/kg/h) and high dose (6.26 mg/kg loading + 1.64 mg/kg/h) i.v., 30 min ischemia, 2 h reperfusion) was “significant decrease”.
